123 compounds from the OPERA property sets (Mansouri et al. 2018) can be followed below.

`CNC1CC2OC1c1ccccc12` (stereo not drawn): the logP (in general, a log measure of how a compound divides between an organic and an aqueous phase) was 0.91.
The figure for `NC(=O)CCCCCn1nnc2ccccc21` is 0.79; for `O=C(O)Cc1ccc(OCc2ccccc2)c(Cl)c1` it is 3.43.
As to `COC12C(COC(N)=O)C3=C(C(=O)C(C)=C(N)C3=O)N1CC1C2N1C(=O)Cc1ccccc1` (stereo not drawn), the logP is 1.15.
`COc1c(C)cc(Cc2cnc(N)nc2N)cc1C` showed a log partition coefficient (logP) of 2.19.
Under `CS(=O)(=O)c1cccc(OCC(=O)O)c1` stands 0.01.
The figure for `NC(=O)c1cccs1` is 0.52; for `OCC1OC(Oc2ccc(I)c(OC3OC(CO)C(O)C(O)C3O)c2I)C(O)C(O)C1O` (stereo not drawn) it is -1.31.
Turning to `CCCCC1OC(=O)c2cc(NC(C)=O)ccc21` (stereo not drawn), the logP amounted to 2.77.
With `O=S(=O)(Nc1cccc(Br)c1)C(F)(F)F`, the logP worked out at 3.82.
The figure for `CN(C)N=Nc1cccc([N+](=O)[O-])c1` is 2.75.
As for `CC(=O)C(C#N)=NNc1cc(Cl)cc(Cl)c1`, the logP was found to be 4.68.
The figure for `CCc1ccccc1N1C(=O)CCC1=O` is 0.64; for `CC(=O)Nc1cnc2ccccc2c1` it is 1.92; for `O=C1CCC(=O)N1c1ccccc1C(F)(F)F` it is 0.76.
Under `CCCCCc1nnc(N)o1` stands 1.1.
On to `COC1OCC(O)C(NC(=O)N(C)N=O)C1O` (stereo not drawn), for which the logP is -1.08.
Regarding `CNC(=O)Oc1ccc(S(C)(=O)=O)cc1`, the log partition coefficient (logP) was determined as 0.34.
`CSc1ccc(NS(=O)(=O)C(F)(F)F)cc1` yielded a logP of 3.74.
Under `COCN1C(=O)CN=C(c2ccccc2)c2cc(N)ccc21` stands 1.32; under `COc1ccnc(-n2nc(C)cc2OC)n1`, 1.01; under `CCC(C)NP(=O)(OC)SC` (stereo not drawn), 0.95.
Consider `COC(=O)C(C#N)=NNc1cc(C#N)ccc1C#N`, for which the logP amounted to 2.81.
Under `CN1C(=O)CN=C(c2ccccc2F)c2cc(I)ccc21` stands 3.14; under `O=[N+]([O-])c1cc[n+]([O-])c2c([N+](=O)[O-])cccc12`, 0.76.
Under `O=C(O)CCN1C(=O)C=CC1=O` stands 0.04.
For the compound `CC(=O)OCC(Cn1ccnc1[N+](=O)[O-])OC(C)=O` (stereo not drawn), the logP was -0.05.
Take `CCOC(=O)CCCN1C(=O)C=CC1=O`: the logP came to 0.67.
The compound `O=[N+]([O-])c1nccn1CC(O)CCl` (stereo not drawn) displayed a logP of 0.15.
`CC1=Nc2c([N+](=O)[O-])cc(Cl)cc2S(=O)(=O)N1` showed a logP of 0.85.
The figure for `CC(C)c1cccc(OC2OC(CO)C(O)C(O)C2O)c1` (stereo not drawn) is 0.65; for `COc1cc(Cc2cnc(N)nc2N)cc(OC)c1C(C)=O` it is 1.1; for `CCC1(CC2COc3ccccc3O2)C(=O)NC(=O)NC1=O` (stereo not drawn) it is 1.85.
Under `N#Cc1ccc(NC(=O)N=C(N)N)cc1Cl` stands 1.9; under `CC(C)NNC(=O)C(C)(C)Oc1ccc(Cl)cc1`, 2.56; under `Clc1cccc(C2NCCS2)c1` (stereo not drawn), 2.04.
Under `CCCCCCCCCCCCCC[n+]1cc(C)cc(C)c1.[I-]` stands 2.9; under `S=C=Nc1ccc(N=Nc2ccccc2)cc1`, 5.55; under `COc1cc(CC(=O)O)ccc1OCc1ccccc1`, 2.59.
`c1ccc(Sc2cnn[nH]2)cc1`: the logP was 2.65.
For the compound `CN1C(C(=O)Nc2nccs2)C(=O)c2ccccc2S1(=O)=O` (stereo not drawn), the logP worked out at 1.64.
Take `O=C1CCC(=O)N1c1ccc(C(F)(F)F)cc1`: the log partition coefficient (logP) is 1.45.
`CNC(=O)Oc1cc(C)c(Cl)cc1C` returned a logP of 2.95.
The figure for `COC(=O)N(C)SN(C)C(=O)Oc1cccc2c1OC(C)(C)C2` is 3; for `O=[N+]([O-])c1nccn1CC(O)COCC(F)(F)F` (stereo not drawn) it is 0.52; for `COC12C(COC(N)=O)C3=C(C(=O)C(C)=C(N)C3=O)N1CC1C2N1COC(=O)c1ccccc1` (stereo not drawn) it is 1.26.
The figure for `Cc1ccoc1CN(C)C` is 1.63; for `CCCCCC1(CC)C(=O)NC(=O)N(C)C1=O` (stereo not drawn) it is 2.45.
The figure for `Cc1cc(NC(=O)NC(=N)N)ccc1Cl` is 2.19.
In the case of `C[N+](C)(C)Cc1cccc(Cl)c1.[Br-]`, the logP was -1.81.
The figure for `COc1cc(Cc2cnc(N)nc2N)ccc1Cl` is 1.87.
`CC(C)Cc1nnc(N)o1` gave a logP of 0.4.
Turning to `CCC(C)n1nnc2ccccc21` (stereo not drawn), the logP turned out to be 2.31.
The figure for `O=[N+]([O-])c1cnc(N=C2NCC(O)CN2)s1` (stereo not drawn) is 0.74.
Under `NC(=O)/C=C/c1ccc2c(c1)OCO2` stands 1.4; under `Nc1nc(N)nc(-c2ccc(Cl)cc2Br)n1`, 2.09.
Under `O=C1CN=C(c2ccccc2[N+](=O)[O-])c2cc([N+](=O)[O-])ccc2N1` stands 1.61.
Turning to `O=C(O)COc1ccc(N=Nc2ccccc2)cc1`, the logP was 2.99.
The figure for `Clc1cc(Cl)c(N=C2NCCN2)c(Cl)c1` is 2.18; for `CCC(C)(Oc1ccc(Cl)cc1)C(=O)O` (stereo not drawn) it is 2.9; for `CN(C)C(=O)Nc1ccc(Br)cc1` it is 2.19.
Under `COc1cc(-n2[nH]c(C)cc2=O)nc(C)n1` stands 0.72.
Under `COCN1C(=O)CN=C(c2ccccc2Cl)c2cc(Cl)ccc21` stands 3.23; under `O=C1CN=C(c2ccccc2F)c2cc(I)ccc2N1CC(O)CO` (stereo not drawn), 1.81.
Regarding `CCOC(=O)C(=Cc1cccc(OC)c1)C(=O)OCC`, the logP amounted to 3.18.
The figure for `CN(C)c1cccc(C(N)=O)c1` is 0.95; for `CN(C)c1ccc2c(c1)C(=O)OC2(C)C` it is 2.42; for `CCCCC(C)n1nnc2ccccc21` (stereo not drawn) it is 3.44.
The compound `CC1=Nc2c(I)cc(Cl)cc2S(=O)(=O)N1` registered a logP of 1.81.
In turn, `Clc1ccccc1-c1ccc(Cl)c(Cl)c1Cl` yielded a logP of 6.11.
Turning to `Cc1ccc(OC2OC(CO)C(O)C(O)C2O)cc1` (stereo not drawn), the logP was -0.16.
The figure for `CCOC(=O)C(=Cc1cccc(C)c1)C(C)=O` is 2.8.
The figure for `C=C(C)C(=O)OC(C)C` is 2.25.
As to `CN(SN(C)C(=O)OC(C)(C)C)C(=O)Oc1cccc2c1OC(C)(C)C2`, the lipophilicity (logP) amounted to 4.3.
`CCC1(CC)SCC(=O)NC1=O` displayed a logP of 1.52.
For `CCc1n[nH]c(=O)[nH]c1=O`, the logP is 0.22.
The figure for `ClC1=CC(Cl)C(Cl)C(Cl)C1` (stereo not drawn) is 3.72.
Under `CN(C)CC(=O)NCc1ccccc1` stands 1.11.
The figure for `O=C(NC(CO)C(O)c1ccc(Cl)cc1)C(Cl)Cl` (stereo not drawn) is 1.64.
The compound `CN(/N=N/c1nc[nH]c1C(N)=O)C(C)(C)C` registered a log partition coefficient (logP) of 0.94.
In the case of `CC(=O)N(CC(O)CO)c1c(I)c(C(=O)NCC(O)CO)c(I)c(C(=O)NCC(O)CO)c1I` (stereo not drawn), the logP is -3.05.
Under `CN(C)C(=O)CCc1ccco1` stands 0.62; under `COc1cc(S(=O)(=O)CCN2CCCCC2)cc(OC)c1OC`, 1.6.
The figure for `CC(C)N(N=O)C(=O)Nc1ccccc1` is 2.5.
Take `c1ccc(O[Si]23OCCN(CCO2)CCO3)cc1`: the logP was -0.3.
The compound `O=NN(CCCl)C(=O)NC12CC3CC(CC(C3)C1)C2` came in with a logP of 3.56.
The figure for `ClC1C(Cl)C(Cl)C(Br)C(Br)C1Cl` (stereo not drawn) is 3.88; for `CCC[n+]1cccc2ccccc21.[Br-]` it is -2.52.
Compound `O=C1NC(=S)SC1=Cc1ccc([N+](=O)[O-])o1` yielded a lipophilicity (logP) of 0.74.
Compound `CC(=O)c1cccc(NS(=O)(=O)C(F)(F)F)c1` came in with a logP of 2.78.
With `CCOC(=O)C(=Cc1ccccc1C)C(C)=O`, the logP is 2.66.
Under `COCC1=Nc2cc(Cl)ccc2S(=O)(=O)N1` stands 1.12; under `CCOP(N)(=O)SCC` (stereo not drawn), 0.15.
The figure for `CNC(=O)c1ccccc1/N=N/N(C)C` is 1.83.
The figure for `CCCCCCCCOn1c(=O)[nH]c(C)c(Br)c1=O` is 3.39; for `COc1cc(Cc2cnc(N)nc2N)cc(OC)c1O` it is 0.37; for `O=C(O)c1ccccc1Nc1cccc([N+](=O)[O-])c1` it is 4.57.
Regarding `CNC(=O)NN`, the lipophilicity (logP) was -2.2.
For `O=CN(Cc1ccccc1)c1ccccc1`, the lipophilicity (logP) was determined as 2.62.
Under `COc1ccccc1C(=O)NCCCN` stands 0.2; under `COCCn1ccnc1[N+](=O)[O-]`, 0.12; under `CC(C)C1=Nc2cc(Cl)ccc2S(=O)(=O)N1`, 2.
Under `COc1cccc(/C=C/[N+](=O)[O-])c1` stands 2.37; under `O=C(O)COc1cc(F)cc(Cl)c1`, 2.2; under `CC(=O)C(C#N)=NNc1cc(C(F)(F)F)ccc1Cl`, 5.08.
The figure for `CCNC(=O)CNC(=O)C=[N+]=[N-]` is -0.62; for `Clc1ccccc1-c1ccccc1Cl` it is 4.97.
The compound `COC(=O)C1(n2ccnc2[N+](=O)[O-])CC(OC(C)=O)C(NC(C)=O)C(C(OC(C)=O)C(COC(C)=O)OC(C)=O)O1` (stereo not drawn) displayed a logP of 0.41.
The compound `CC1CCCN(N=O)C1` (stereo not drawn) registered a logP of 0.99.
In the case of `CCCCOC(=O)N(CCCC)SN(C)C(=O)ON=C(C)SC`, the logP turned out to be 4.2.
Regarding `CCCNC(=NC#N)NC`, the log partition coefficient (logP) stood at 0.42.
Under `OCC1OC(Oc2ccc3ccccc3c2)C(O)C(O)C1O` (stereo not drawn) stands 0.76; under `CCC(=O)OCC(=O)[C@@]1(O)[C@@H](C)C[C@H]2[C@@H]3CCC4=CC(=O)C=C[C@]4(C)[C@@]3(F)[C@@H](O)C[C@@]21C`, 3.06; under `CNC1=NC(=O)C(=CC=Cc2ccc([N+](=O)[O-])o2)S1`, 1.35.
Take `O=C(Cn1ccnc1[N+](=O)[O-])NCCO`: the logP was -1.34.
`CCOP(=O)(OCC)Oc1ccc(SC)cc1`: the lipophilicity (logP) was determined as 2.79.
Under `CN(C)c1cnnc(N(C)C)c1` stands 0.84; under `C#CCN(C)N=Nc1nc[nH]c1C(N)=O`, 0.33; under `COc1cc(Cc2cnc(N)nc2N)ccc1OCc1ccccc1`, 2.66.
`CCCCCCCCCCCCCCCC[n+]1ccc(C)c(C)c1.[I-]` gave a logP of 3.16.
Turning to `Nc1ccc(OC2OC(CO)C(O)C(O)C2O)cc1` (stereo not drawn), the logP is -2.67.
Under `ClC1C(Cl)C(Br)C(Cl)C(Br)C1Cl` (stereo not drawn) stands 3.98; under `Cc1c(N(C)C)cc(Cc2cnc(N)nc2N)cc1N(C)C`, 2.06.
